Converted amounts (≈) assume the structure as drawn. Read-outs that look alike come from different tables or passages of the source.

Assay [1] relates to E. coli ATCC25922. Kind of assay: Antibacterial MIC, CLSI microdilution, human pathogens. It is filed as cell-based. The settings on record: Escherichia coli, 18 h, read-out: Minimum inhibitory concentration (MIC). As for the experimental part:
(§1) Briefly, stock solutions (5 mg/ml) of compounds in DMSO were diluted in Mueller-Hinton broth (MHB) to the different two-fold assay concentrations. […] The obtained solution was added to MHB and serially two-fold diluted in a 96-well microplate. A sample of 100 μL of inoculum 1.5 × 10^6 colony forming unit (CFU) ml^-1 in MHB was added and then incubated at 37°C for 18 h. The assay was repeated three times. Wells containing MHB, 100 μL of inoculum, and DMSO served as negative controls.
For orientation: In broth dilution the organism is exposed to a series of concentrations in liquid medium.

Assay [2] has as its system S. aureus MRSA 622-4. The assay is described as above. The settings on record: Staphylococcus aureus, 18 h, read-out: Minimum inhibitory concentration (MIC). The assay is classed as cell-based. The procedure: as §1
Assay [3] deals with S. aureus MRSA 97-7. The assay is described as above. It is filed as cell-based. The settings on record: Staphylococcus aureus, 18 h, read-out: Minimum inhibitory concentration (MIC). The procedure: as §1
Assay [4] concerns S. aureus NTCC8325-4. The description is as above. The assay is classed as cell-based. The settings on record: Staphylococcus aureus, NTCC83254, 18 h, read-out: Minimum inhibitory concentration (MIC). The procedure: as §1
Assay [5] deals with T1, 5-hLOX (Homo sapiens, UniProt P09917).
T1 construct: purchased Cayman Chemicals Inc. (Ann Arbor, MI, USA)
T1 sequence (P09917 1-674): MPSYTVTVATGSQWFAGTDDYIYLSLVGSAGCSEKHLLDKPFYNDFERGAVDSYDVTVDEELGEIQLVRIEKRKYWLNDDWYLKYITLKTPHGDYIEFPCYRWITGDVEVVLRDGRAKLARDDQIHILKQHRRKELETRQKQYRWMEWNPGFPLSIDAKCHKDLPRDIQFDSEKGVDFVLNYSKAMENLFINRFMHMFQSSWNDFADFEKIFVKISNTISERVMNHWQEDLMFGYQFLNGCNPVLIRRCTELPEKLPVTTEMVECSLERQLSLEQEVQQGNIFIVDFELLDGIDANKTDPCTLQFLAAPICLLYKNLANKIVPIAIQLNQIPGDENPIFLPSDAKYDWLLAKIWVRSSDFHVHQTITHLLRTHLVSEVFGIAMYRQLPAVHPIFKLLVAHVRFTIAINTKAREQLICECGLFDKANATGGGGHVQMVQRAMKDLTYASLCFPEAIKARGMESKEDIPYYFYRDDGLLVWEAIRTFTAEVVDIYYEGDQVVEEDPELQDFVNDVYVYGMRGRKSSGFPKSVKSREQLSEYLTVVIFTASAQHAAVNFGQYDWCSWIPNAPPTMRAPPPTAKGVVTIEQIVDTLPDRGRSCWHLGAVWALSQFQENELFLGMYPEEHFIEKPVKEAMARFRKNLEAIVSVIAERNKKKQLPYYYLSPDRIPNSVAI
The experiment in a line: In vitro 5-hLOX enzyme assay (H2DCFDA fluorescence). The assay is classed as biochemical. The settings on record: for Type of inhibition: 5-hLOX; for inhibition at 10 µM: Flavanones at 10 µM. The procedure: The commercially available enzyme 5-hLOX from Cayman Chemicals Inc. (Ann Arbor, MI, USA), was diluted (1:500) in the assay buffer. This contained 4-(2-hydroxyethyl)-1-piperazineethane sulfonic acid (HEPES) 50 mM, ethylenediamine tetraacetic acid (EDTA) 2 mM, adenosine triphosphate (ATP) 10 μM, and CaCl2 10 μM at pH 7.5) admixed with 10 μM of H2DCFDA. The reaction mixture was incubated for 15 min in the assay plate. Later, 280 μL of buffer and 10 μM of inhibitors were added per well and incubated for 30 min at 37°C. Finally, the reaction was started by adding a suitable concentration of arachidonic acid (0.5 μM) and the fluorescence was read in a multimode detector Synergy™ HT Multi-Mode Microplate Reader (Biotek, Bad Friedrichshall, Germany) […] after incubation at room temperature for 1 h. The IC50 values were obtained for analysis of oxidation of H2DCFDA dye to the highly fluorescent 2’,7’-dichloro-fluorescein (DCF) using the non-linear curve-fitting program. […] All data were collected in duplicate and the assays were performed on different days to ensure reproducibility.

For assay [6], the target named is T2, 15-sLOX (Glycine max, UniProt P08170).
T2 construct: purchased Cayman Chemical Item No. 60712
T2 sequence (P08170 1-839): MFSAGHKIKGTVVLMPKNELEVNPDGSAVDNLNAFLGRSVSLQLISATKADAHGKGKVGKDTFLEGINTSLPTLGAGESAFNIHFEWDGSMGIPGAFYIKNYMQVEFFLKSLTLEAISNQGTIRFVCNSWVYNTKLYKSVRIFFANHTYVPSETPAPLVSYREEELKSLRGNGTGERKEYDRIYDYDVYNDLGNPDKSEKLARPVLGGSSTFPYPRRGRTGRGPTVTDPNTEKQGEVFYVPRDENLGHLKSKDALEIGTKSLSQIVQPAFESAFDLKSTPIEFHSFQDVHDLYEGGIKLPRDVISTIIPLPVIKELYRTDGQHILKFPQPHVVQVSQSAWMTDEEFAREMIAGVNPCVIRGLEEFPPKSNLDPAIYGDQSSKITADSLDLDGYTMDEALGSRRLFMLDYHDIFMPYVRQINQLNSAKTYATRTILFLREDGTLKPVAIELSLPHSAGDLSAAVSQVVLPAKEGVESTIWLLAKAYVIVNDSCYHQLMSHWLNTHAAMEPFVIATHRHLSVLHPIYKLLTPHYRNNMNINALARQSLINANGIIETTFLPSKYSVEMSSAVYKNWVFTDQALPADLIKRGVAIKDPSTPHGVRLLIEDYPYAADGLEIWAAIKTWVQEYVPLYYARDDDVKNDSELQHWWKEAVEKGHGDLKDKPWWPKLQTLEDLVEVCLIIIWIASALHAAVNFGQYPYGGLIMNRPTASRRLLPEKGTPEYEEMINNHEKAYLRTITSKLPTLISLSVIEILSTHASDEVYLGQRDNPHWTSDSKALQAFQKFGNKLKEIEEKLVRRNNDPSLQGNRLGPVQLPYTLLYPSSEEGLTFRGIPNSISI
Kind of assay: In vitro 15-sLOX enzyme assay (absorbance at 234 nm). The settings on record: Flavanones at 10 µM (table footnote); method: 5 µg/ml. It is filed as biochemical. As for the experimental part:
The activity of 15-sLOX (Cayman Chemical Item No. 60712) was determined following the formation of reaction products at 234 nm (ϵ = 25,000 M^-1 cm^-1) in a Perkin-Elmer Lambda 25 UV/Vis spectrophotometer. All reactions were performed at a final volume of 2 ml and were constantly stirred using a magnetic bar at room temperature. The reaction medium used contained 25 mM HEPES buffer (pH 7.4), Triton X-100 0.01%, and the arachidonic acid (AA) substrate at a 10 µM concentration determine preliminary percent inhibition (%I). AA concentration was determined quantitatively by allowing the enzymatic reaction to go to completion. The reaction was carried out by adding the inhibitor dissolved in DMSO (5 µg/ml in the reaction medium) to the bucket with the substrate buffer, and finally the enzyme was added. Assays were performed in duplicate on three different days. GraphPad Prism Demo V.7 performed the graphics for IC50 and kinetics studies ([GraphPad-Software-Inc., 2017]).

What is called IC50 is the point on the concentration scale where inhibition reaches its midpoint. What is called Ki is the equilibrium dissociation constant of an inhibitor or competing ligand from its target. What is called inhibition is how much of the control response was suppressed. Turning to `COc1cc(O)c2c(c1)O[C@H](c1ccc(O)cc1)CC2=O` [Compound 1, (-)-(2S)-5,4’-dihydroxy-7-methoxyflavanone], the MIC in assay [1], in assay [2], in assay [3] and in assay [4] was more than 100 µg/mL throughout. Also, the IC50 in assay [5] was determined as 11.3 µM. Besides, the inhibition constant Ki in assay [5] was 4.71 µM. In addition, in assay [5], the Type of inhibition entry was “non-competitive”. Further, the inhibition at 10 µM in assay [5] worked out at 61 ± 1.34%; in assay [6] it was 7 ± 3.12%.
`COc1cc(O)c2c(c1)O[C@H](c1ccc(O)c(O)c1)CC2=O` [Compound 2, (-)-(2S)-5,3’,4’-trihydroxy-7-methoxyflavanone]: the MIC in assay [1] is more than 100 µg/mL; in assay [2], more than 100 µg/mL; in assay [3], 50 µg/mL (≈ 165 µM); in assay [4], more than 100 µg/mL. Moreover, the Type of inhibition result in assay [5] is “competitive”. For the same compound, the inhibition at 10 µM turned out to be 93 ± 0.791% in assay [5] and 26 ± 3.96% in assay [6]. Also, the IC50 in assay [5] (read-out: IC50 (5-hLOX)) was found to be 0.1 µM.
